Results on one compound are retold here after patent US20090054403A1, “Treatment of Post-Traumatic Stress Disorder” (priority 2007, published 2009).

One data set addresses T1, bovine DBH (Bos taurus, UniProt P15101).
T1 construct: Bovine DBH from adrenal glands was obtained from Sigma Chemicals; purchased Sigma Chemicals (St Louis, Mo.); host or cells: bovine adrenal glands
The experiment in a line: Bovine DBH inhibition kinetics, [14C]tyramine radioactive method. In kind it is biochemical. How it is done: Enzyme Assay by Radioactive Method. Enzymatic activity was assayed using [^14C]tyramine as substrate and a C18 column to separate the product. The assay was performed in […] volume containing 100 mM NaAc, pH 5.2, 10 mM fumaric acid, 0.5 μM CuSO4, 4 mM ascorbic acid, 0.1 mg/ml catalase and various concentrations of tyramine. The total counts of each reaction was ˜15,000 cpm. Bovine DBH (0.18 ng for each reaction) was mixed with tyramine and inhibitor in the reaction buffer at 37° C. The reaction was initiated by the addition of ascorbate/catalase mixture and was incubated at 37° C. for 30 minutes. The reaction was stopped by the addition of […] of 25 mM EDTA, 50 mM KH2PO4, pH 2.3. Entire mixture was loaded to a C18 light load column (two combined into one) that was pre-washed with MeOH and equilibrated with 50 mM KH2PO4, pH 2.3. Elution into scintillation vials was carried out with 1 ml of KH2PO4, pH 2.3 buffer twice, followed by 2 ml of the same buffer. ReadySafe scintillation fluid (16 ml) was added to the scintillation vials and the samples were counted for ^14C radioactivity.
Nepicastat concentrations of 0, 1, 2, 4, 8 nM were used to study inhibition kinetics at the following tyramine concentrations: 0.5, 1, 2, 3, 4 mM. […] Km′ was calculated from the slopes and Y intercepts and linear regression was used to obtain Ki value.

Data set [1] concerns tissue norepinephrine and dopamine levels. The experiment in a line: Tissue catecholamines in iodine-deficient rats after 10 days b.i.d. dosing. In kind it is in vivo, Sprague-Dawley rats. Conditions: day 10; for dopamine/norepinephrine ratio vs vehicle, mesenteric artery: hydrochloride. On the procedure: Male Sprague-Dawley rats, weighing 180-200 grams, were fed an iodine deficient diet (Purina, 5891C, Lot 1478, 0.066±0.042 mg iodine/kg sample) ad libitum 14 days prior to treatment. Animals were weighed and randomly assigned to one of the following treatment groups (n=12 per group): Nepicastat at 2.0 mg/kg, Nepicastat at 6.2 mg/kg, R, Methimazole at 1 mg/kg, or vehicle at 1 ml/kg. Each group of rats was dosed orally in the evening and the following morning, approximately 12 hours apart, for 10 consecutive days.
At four hours after the second dose, on day 10, rats were anesthetized with halothane, decapitated, and the cortex, striatum, and mesenteric artery were harvested and weighed. Tissue samples were not harvested from the methimazole groups as they only served as positive controls for determination of thyroid function. The mesenteric artery, cortex, and striatum were immediately placed in 0.4M iced perchloric acid and analyzed for norepinephrine and dopamine levels the same day using HPLC.
To statistically evaluate changes in T3 and T4 levels, a change from baseline was calculated from the day-3 time point. A non-parametric two-way within subject analysis of variance (ANOVA) was conducted. Also a one-way ANOVA was performed to detect if a significant difference from control occurred. Pairwise analyses between controls and each treatment group were carried out using Fisher's LSD strategy to control the experiment-wise error rate. For statistical analysis of catecholamine levels, a one-way ANOVA with factor DOSE was performed. Pairwise analyses between treated and controls at each dose were carried out using Fisher's LSD strategy to control the experiment-wise error rate.

The next data set concerns blood pressure. The data set can be described thus: Blood pressure in conscious, restrained normotensive rats. In kind it is in vivo, Wistar-Kyoto rats. The settings on record: 10 mg/kg, 4 hours after dosing.
The subject of data set [2] is dopamine and norepinephrine in the left ventricle. The experiment in a line: Left ventricle catecholamines after two iv doses. It is filed as in vivo, Sprague-Dawley rats. Conditions: 15 mg/kg iv x2, 12 h apart, 6 h after last.
Data set [3] concerns dopamine/norepinephrine ratio. The data set can be described thus: Dose response of tissue dopamine/norepinephrine ratio 6 hours after a single oral dose. It is filed as in vivo, SHR.
The test system of data set [4] is aortic contractile response to phenylephrine. The experiment in a line: Aortic contractile response in vitro to phenylephrine after 21 days treatment. The settings on record: 10 mg/kg p.o. daily for 21 days. In kind it is in vivo, SHR.
Data set [5] deals with mean arterial pressure, renal blood flow. The experiment in a line: Arterial pressure and renal function in anesthetized SHR after iv dosing. It is filed as in vivo. Conditions: 3.0 mg/kg i.v.
For another data set, the system named is mice. The data set can be described thus: Gross motor behavior and locomotor activity after acute dosing. It is filed as in vivo.
A short description of data set [6]: Plasma levels of nepicastat and N-acetyl metabolite in dogs, 2 mg/kg b.i.d. Conditions: 2 mg/kg bid, sampled 6 h after AM dose. In kind it is in vivo, beagle dogs. How it is done: Male Beagle dogs (Marshall farms, North Rose, N.Y.) weighing between 9-16 kg were used in the study. The animals were allowed water ad libitum and given food once daily at ˜10.00 AM. Animals were randomly assigned to one of the following treatment groups (n=8/group): placebo (empty capsule), or nepicastat at 2 mg/kg b.i.d (4 mg/kg/day). Each animal received 2 doses daily, morning and afternoon (8-10 hours apart). Daily blood samples (10 ml) were drawn 6 h after the AM dose for measurement of plasma levels of nepicastat and catecholamines. The blood was collected in tubes containing heparin and glutathione and centrifuged at −4° C. within 1 h of collection. The plasma was separated and divided into two samples, one for the measurement of plasma catecholamines and the other for analysis of nepicastat.
Plasma NE, DA and EPI were anaylysed by HPLC using electrochemical detection. Plasma concentration of nepicastat was determined by HPLC using electrochemical detection.

Each structure is given as a SMILES string.

T1 sequence (P15101 whole entry): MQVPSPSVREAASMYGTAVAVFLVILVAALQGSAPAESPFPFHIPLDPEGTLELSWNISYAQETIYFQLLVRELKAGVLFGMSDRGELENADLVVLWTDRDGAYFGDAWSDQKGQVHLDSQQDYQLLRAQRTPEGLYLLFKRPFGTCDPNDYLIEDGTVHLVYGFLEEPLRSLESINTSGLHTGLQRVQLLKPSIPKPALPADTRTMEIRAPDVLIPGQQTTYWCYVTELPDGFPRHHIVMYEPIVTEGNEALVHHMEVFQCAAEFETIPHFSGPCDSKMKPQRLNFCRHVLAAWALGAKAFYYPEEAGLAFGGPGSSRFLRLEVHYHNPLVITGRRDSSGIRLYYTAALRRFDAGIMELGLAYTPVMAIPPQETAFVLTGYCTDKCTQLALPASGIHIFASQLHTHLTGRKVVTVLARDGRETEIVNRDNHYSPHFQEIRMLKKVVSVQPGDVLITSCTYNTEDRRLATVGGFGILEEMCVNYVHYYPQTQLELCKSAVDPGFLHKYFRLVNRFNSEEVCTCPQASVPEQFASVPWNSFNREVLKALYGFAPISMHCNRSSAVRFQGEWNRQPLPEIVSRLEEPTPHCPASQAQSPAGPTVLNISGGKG

`Cl.NCc1c[nH]c(=S)n1[C@H]1CCc2c(F)cc(F)cc2C1` [nepicastat, (S)-5-Aminomethyl-1-(5,7-difluoro-1,2,3,4-tetrahydronaphth-2-yl)-2,3-dihydro-2-thioxo-1H-imidazole hydrochloride]: at bovine DBH (nepicastat 1-8 nM, tyramine 0.5-4 mM), the type of inhibition result is “competitive with tyramine”. Also, on bovine DBH (vs tyramine, linear regression of apparent Km), the Ki was found to be 4.7 ± 0.4 nM. Also, in [1] (2.0 and 6.2 mg/kg b.i.d.), the “norepinephrine levels vs vehicle, cortex” value is listed as “not significantly (p>0.05) different”; the “norepinephrine levels vs vehicle, mesenteric artery” value is listed as “significantly (p<0.05) lower”; the “norepinephrine levels vs vehicle, striatum” value is on record as “marginally (p<0.10) lower”; the “dopamine/norepinephrine ratio vs vehicle, mesenteric artery” value is “significantly (p<0.05) higher”. In addition, in [1] (2.0 and 6.2 mg/kg b.i.d., listed as 2a), the “dopamine/norepinephrine ratio vs vehicle, mesenteric artery” value is recorded as “significantly raised”. Also, the “dopamine/norepinephrine ratio vs vehicle, cortex and striatum” value in [1] (2.0 and 6.2 mg/kg b.i.d., listed as RS-25560-197, hydrochloride) is recorded as “not significantly (p>0.05) different”. The “dopamine levels vs vehicle, cortex, striatum and mesenteric artery” value in [1] (2.0 or 6.2 mg/kg b.i.d.) is “not significantly (p>0.05) different”. Besides, the decrease in pressure in the data set on blood pressure was −13 mmHg. In addition, in data set [2], the “decrease in norepinephrine levels, left ventricle” value is 51%; the “increase in dopamine levels, left ventricle” value was 472%; the “increase in dopamine/norepinephrine ratio, left ventricle” value is given as 1117%. In data set [3], the “dose with significant change in dopamine/norepinephrine ratio, cerebral cortex” value came out at 10 mg/kg; the “dose with significant change in dopamine/norepinephrine ratio, left ventricle” value was 3.0 mg/kg; the “dose with significant change in dopamine/norepinephrine ratio, mesenteric artery” value was 0.3 mg/kg. The aortic phenylephrine responsiveness result in data set [4] is reported as “restored phenylephrine responsiveness”. Moreover, in data set [5], the “renal blood flow, urine production, urinary sodium and potassium excretion” value is listed as “did not lower renal blood flow or alter urine production or urinary excretion of sodium or potassium”. Besides, the mean arterial pressure entry in data set [5] (3 hour period) is “decreased mean arterial pressure”. Besides, the gross motor behavior entry in the data set with mice (1.0-30 mg/kg p.o., acute) was “no significant effects on gross motor behavior”. Also, the locomotor activity entry in the data set with mice (10-100 mg/kg i.p.) is recorded as “did not effect locomotor activity”. Moreover, the “time of peak plasma levels of the drug” value in data set [6] is 2 days post-dose.
